Counter-ions that a name gives are not always drawn. Like-named read-outs stand apart in the source and are kept apart here.
How the values were obtained:
Assay in all cases: AK assay 384-well format, Prestwick library screening
E. faecium = format: cell-based, Enterococcus faecium; conditions: 50 μM final drug concentration; for fold induction at 50 µM: Enterococcus faecium, 3 h
[1] = test system: S. aureus strain USA300-0114; format: cell-based, Staphylococcus aureus; conditions: 50 μM final drug concentration; for fold induction at 50 µM: Staphylococcus aureus, USA300, 3 h
K. pneumoniae = format: cell-based, Klebsiella pneumoniae; conditions: 50 μM final drug concentration; for fold induction at 50 µM: Klebsiella pneumoniae, 3 h
[2] = test system: A. baumannii strain 98-37-09; format: cell-based, Acinetobacter baumannii; conditions: 50 μM final drug concentration; for fold induction at 50 µM: Acinetobacter baumannii, 983709, 3 h
P. aeruginosa = format: cell-based, Pseudomonas aeruginosa; conditions: 50 μM final drug concentration; for fold induction at 50 µM: Pseudomonas aeruginosa, 3 h
E. cloacae = format: cell-based, Enterobacter cloacae; conditions: 50 μM final drug concentration; for fold induction at 50 µM: Enterobacter cloacae, 3 h
E. coli = format: cell-based, Escherichia coli; conditions: 50 μM final drug concentration; for fold induction at 50 µM: Escherichia coli, 3 h
[3] = cutoff for positive-scoring molecules 3-fold increase, read-out: AK-based Prestwick Library Screening Results, E. faecium (fold increase in extracellular AK activity)
[4] = cutoff for positive-scoring molecules 3-fold increase, read-out: AK-based Prestwick Library Screening Results, S. aureus (fold increase in extracellular AK activity)
[5] = cutoff for positive-scoring molecules 3-fold increase, read-out: AK-based Prestwick Library Screening Results, K. pneumoniae (fold increase in extracellular AK activity)
[6] = cutoff for positive-scoring molecules 3-fold increase, read-out: AK-based Prestwick Library Screening Results, A. baumannii (fold increase in extracellular AK activity)
[7] = cutoff for positive-scoring molecules 3-fold increase, read-out: AK-based Prestwick Library Screening Results, P. aeruginosa (fold increase in extracellular AK activity)
[8] = cutoff for positive-scoring molecules 3-fold increase, read-out: AK-based Prestwick Library Screening Results, E. cloacae (fold increase in extracellular AK activity)
[9] = cutoff for positive-scoring molecules 3-fold increase, read-out: AK-based Prestwick Library Screening Results, E. coli (fold increase in extracellular AK activity)
[10] = planktonic E. faecium, cutoff for positive-scoring molecules 3-fold increase, read-out: AK-based Prestwick Library Screening Results, E. faecium (increase in extracellular AK activity)
[11] = planktonic S. aureus, cutoff for positive-scoring molecules 3-fold increase, read-out: AK-based Prestwick Library Screening Results, S. aureus (increase in extracellular AK activity)
[12] = planktonic K. pneumoniae, cutoff for positive-scoring molecules 3-fold increase, read-out: AK-based Prestwick Library Screening Results, K. pneumoniae (increase in extracellular AK activity)
[13] = planktonic A. baumannii, cutoff for positive-scoring molecules 3-fold increase, read-out: AK-based Prestwick Library Screening Results, A. baumannii (increase in extracellular AK activity)
[14] = planktonic P. aeruginosa, cutoff for positive-scoring molecules 3-fold increase, read-out: AK-based Prestwick Library Screening Results, P. aeruginosa (increase in extracellular AK activity)
[15] = planktonic E. cloacae, cutoff for positive-scoring molecules 3-fold increase, read-out: AK-based Prestwick Library Screening Results, E. cloacae (increase in extracellular AK activity)
[16] = planktonic E. coli, cutoff for positive-scoring molecules 3-fold increase, read-out: AK-based Prestwick Library Screening Results, E. coli (increase in extracellular AK activity)
[17] = planktonic, cutoff for positive 3-fold increase, read-out: AK-based Prestwick Library Screening Results, E. faecium (fold increase in extracellular AK activity)
[18] = planktonic, cutoff for positive 3-fold increase, read-out: AK-based Prestwick Library Screening Results, S. aureus (fold increase in extracellular AK activity)
[19] = planktonic, cutoff for positive 3-fold increase, read-out: AK-based Prestwick Library Screening Results, K. pneumoniae (fold increase in extracellular AK activity)
[20] = planktonic, cutoff for positive 3-fold increase, read-out: AK-based Prestwick Library Screening Results, A. baumannii (fold increase in extracellular AK activity)
[21] = planktonic, cutoff for positive 3-fold increase, read-out: AK-based Prestwick Library Screening Results, P. aeruginosa (fold increase in extracellular AK activity)
[22] = planktonic, cutoff for positive 3-fold increase, read-out: AK-based Prestwick Library Screening Results, E. cloacae (fold increase in extracellular AK activity)
[23] = planktonic, cutoff for positive 3-fold increase, read-out: AK-based Prestwick Library Screening Results, E. coli (fold increase in extracellular AK activity)

COP(=O)(OC)C(O)C(Cl)(Cl)Cl (centres unmarked) [Trichlorfon]
fold induction at 50 µM (E. faecium; planktonic E. faecium, 384-well, […], read-out: AK-based Prestwick Library Screening Results: E. faecium (increase in extracellular AK activity)): 0.8 | fold induction at 50 µM ([1]; planktonic S. aureus, 384-well, […], read-out: AK-based Prestwick Library Screening Results: S. aureus (increase in extracellular AK activity)): 1.1 | fold induction at 50 µM (K. pneumoniae; planktonic K. pneumoniae, 384-well, […], read-out: AK-based Prestwick Library Screening Results: K. pneumoniae (increase in extracellular AK activity)): 1.1 | fold induction at 50 µM ([2]; planktonic A. baumannii, 384-well, […], read-out: AK-based Prestwick Library Screening Results: A. baumannii (increase in extracellular AK activity)): 0.9 | fold induction at 50 µM (P. aeruginosa; planktonic P. aeruginosa, 384-well, […], read-out: AK-based Prestwick Library Screening Results: P. aeruginosa (increase in extracellular AK activity)): 1 | fold induction at 50 µM (E. cloacae; planktonic E. cloacae, 384-well, […], read-out: AK-based Prestwick Library Screening Results: E. cloacae (increase in extracellular AK activity)): 1.5 | fold induction at 50 µM (E. coli; planktonic E. coli, 384-well, […], read-out: AK-based Prestwick Library Screening Results: E. coli (increase in extracellular AK activity)): 1.2

C[N+](C)(C)CCCCCCCCCC[N+](C)(C)C [Decamethonium bromide]
fold induction at 50 µM (E. faecium; [3]): 0.9 | fold induction at 50 µM [1, 4]: 0.4 | fold induction at 50 µM (K. pneumoniae; [5]): 0.5 | fold induction at 50 µM [2, 6]: 0.5 | fold induction at 50 µM (P. aeruginosa; [7]): 0.4 | fold induction at 50 µM (E. cloacae; [8]): 0.5 | fold induction at 50 µM (E. coli; [9]): 0.5

O=C1NCC2(CCN(CCc3ccccc3)CC2)O1 [Fenspiride hydrochloride]
fold induction at 50 µM (E. faecium; planktonic E. faecium, 384-well, cutoff for positive-scoring molecules 3-fold increase, read-out: AK-based Prestwick Library Screening Results: E. faecium (increase in extracellular AK activity)): 1 | fold induction at 50 µM ([1]; planktonic S. aureus, 384-well, cutoff for positive-scoring molecules 3-fold increase, read-out: AK-based Prestwick Library Screening Results: S. aureus (increase in extracellular AK activity)): 1.1 | fold induction at 50 µM (K. pneumoniae; planktonic K. pneumoniae, 384-well, cutoff for positive-scoring molecules 3-fold increase, read-out: AK-based Prestwick Library Screening Results: K. pneumoniae (increase in extracellular AK activity)): 1 | fold induction at 50 µM ([2]; planktonic A. baumannii, 384-well, cutoff for positive-scoring molecules 3-fold increase, read-out: AK-based Prestwick Library Screening Results: A. baumannii (increase in extracellular AK activity)): 1.2 | fold induction at 50 µM (P. aeruginosa; planktonic P. aeruginosa, 384-well, cutoff for positive-scoring molecules 3-fold increase, read-out: AK-based Prestwick Library Screening Results: P. aeruginosa (increase in extracellular AK activity)): 1.1 | fold induction at 50 µM (E. cloacae; planktonic E. cloacae, 384-well, cutoff for positive-scoring molecules 3-fold increase, read-out: AK-based Prestwick Library Screening Results: E. cloacae (increase in extracellular AK activity)): 1.6 | fold induction at 50 µM (E. coli; planktonic E. coli, 384-well, cutoff for positive-scoring molecules 3-fold increase, read-out: AK-based Prestwick Library Screening Results: E. coli (increase in extracellular AK activity)): 1.3

O=C(NCCN1CCOCC1)c1ccc(Cl)cc1 [Moclobemide]
fold induction at 50 µM (E. faecium; [10]): 0.9 | fold induction at 50 µM [1, 11]: 0.6 | fold induction at 50 µM (K. pneumoniae; [12]): 0.6 | fold induction at 50 µM [2, 13]: 0.7 | fold induction at 50 µM (P. aeruginosa; [14]): 0.8 | fold induction at 50 µM (E. cloacae; [15]): 1.2 | fold induction at 50 µM (E. coli; [16]): 0.9

CCOC(=O)c1ccc(N)cc1 [Benzocaine]
fold induction at 50 µM (E. faecium; [3]): 1 | fold induction at 50 µM [1, 4]: 1.2 | fold induction at 50 µM (K. pneumoniae; [5]): 0.9 | fold induction at 50 µM [2, 6]: 1.2 | fold induction at 50 µM (P. aeruginosa; [7]): 1.1 | fold induction at 50 µM (E. cloacae; [8]): 1.6 | fold induction at 50 µM (E. coli; [9]): 1.1

C[C@H]1C[C@H]2[C@@H]3CCC4=CC(=O)C=C[C@]4(C)[C@@]3(F)[C@@H](O)C[C@]2(C)[C@@]1(O)C(=O)CO [Betamethasone]
fold induction at 50 µM (E. faecium; [10]): 1.1 | fold induction at 50 µM [1, 11]: 1.1 | fold induction at 50 µM (K. pneumoniae; [12]): 0.9 | fold induction at 50 µM [2, 13]: 0.9 | fold induction at 50 µM (P. aeruginosa; [14]): 1.1 | fold induction at 50 µM (E. cloacae; [15]): 1.3 | fold induction at 50 µM (E. coli; planktonic E. coli, […], read-out: AK-based Prestwick Library Screening Results, E. coli (increase in extracellular AK activity)): 1.1

CC(C)NCC(O)COc1ccc(CCOCC2CC2)cc1 (centres unmarked) [Betaxolol hydrochloride]
fold induction at 50 µM (E. faecium; [17]): 0.9 | fold induction at 50 µM [1, 18]: 0.9 | fold induction at 50 µM (K. pneumoniae; [19]): 1 | fold induction at 50 µM [2, 20]: 1.4 | fold induction at 50 µM (P. aeruginosa; [21]): 1.1 | fold induction at 50 µM (E. cloacae; [22]): 1.6 | fold induction at 50 µM (E. coli; [23]): 1.2

C[N+](C)(C)CCCCCC[N+](C)(C)C.O.O.[Br-].[Br-] [Hexamethonium dibromide dihydrate]
AK-based Prestwick Library Screening Results, E. faecium (increase in extracellular AK activity) (E. faecium; 384-well format, […]): 0.9 | AK-based Prestwick Library Screening Results, S. aureus (increase in extracellular AK activity) ([1]; 384-well format, […]): 0.7 | AK-based Prestwick Library Screening Results, K. pneumoniae (increase in extracellular AK activity) (K. pneumoniae; 384-well format, […]): 0.7 | AK-based Prestwick Library Screening Results, A. baumannii (increase in extracellular AK activity) ([2]; 384-well format, […]): 0.9 | AK-based Prestwick Library Screening Results, P. aeruginosa (increase in extracellular AK activity) (P. aeruginosa; 384-well format, […]): 0.8 | AK-based Prestwick Library Screening Results, E. cloacae (increase in extracellular AK activity) (E. cloacae; 384-well format, […]): 1.2 | AK-based Prestwick Library Screening Results, E. coli (increase in extracellular AK activity) (E. coli; 384-well format, […]): 0.9

Cc1c2ccncc2c(C)c2c1[nH]c1ccccc12 [Ellipticine]
fold induction at 50 µM (E. faecium; [17]): 1.3 | fold induction at 50 µM [1, 18]: 0.8 | fold induction at 50 µM (K. pneumoniae; [19]): 1 | fold induction at 50 µM [2, 20]: 4.1 | fold induction at 50 µM (P. aeruginosa; [21]): 1.2 | fold induction at 50 µM (E. cloacae; [22]): 1.8 | fold induction at 50 µM (E. coli; [23]): 1.3

CC(C(=O)O)c1ccc(N2Cc3ccccc3C2=O)cc1 (centres unmarked) [Indoprofen]
fold induction at 50 µM (E. faecium; planktonic, cutoff for positive-scoring molecules 3-fold increase, read-out: AK-based Prestwick Library Screening Results, E. faecium (fold increase in extracellular AK activity)): 0.1 | fold induction at 50 µM ([1]; planktonic, cutoff for positive-scoring molecules 3-fold increase, read-out: AK-based Prestwick Library Screening Results, S. aureus (fold increase in extracellular AK activity)): 0.2 | fold induction at 50 µM (K. pneumoniae; planktonic, cutoff for positive-scoring molecules 3-fold increase, read-out: AK-based Prestwick Library Screening Results, K. pneumoniae (fold increase in extracellular AK activity)): 0.1 | fold induction at 50 µM ([2]; planktonic, cutoff for positive-scoring molecules 3-fold increase, read-out: AK-based Prestwick Library Screening Results, A. baumannii (fold increase in extracellular AK activity)): 0.2 | fold induction at 50 µM (P. aeruginosa; planktonic, cutoff for positive-scoring molecules 3-fold increase, read-out: AK-based Prestwick Library Screening Results, P. aeruginosa (fold increase in extracellular AK activity)): 0.2 | fold induction at 50 µM (E. cloacae; planktonic, cutoff for positive-scoring molecules 3-fold increase, read-out: AK-based Prestwick Library Screening Results, E. cloacae (fold increase in extracellular AK activity)): 1.5 | fold induction at 50 µM (E. coli; planktonic, cutoff for positive-scoring molecules 3-fold increase, read-out: AK-based Prestwick Library Screening Results, E. coli (fold increase in extracellular AK activity)): 0.2

COc1cc2c(cc1OC)-c1cc3ccc(OC)c(OC)c3c[n+]1CC2 [Palmatine chloride]
fold induction at 50 µM (E. faecium; [10]): 1 | fold induction at 50 µM [1, 11]: 0.8 | fold induction at 50 µM (K. pneumoniae; [12]): 0.5 | fold induction at 50 µM [2, 13]: 0.7 | fold induction at 50 µM (P. aeruginosa; [14]): 0.7 | fold induction at 50 µM (E. cloacae; [15]): 0.9 | fold induction at 50 µM (E. coli; [16]): 0.7

Source: US10004701B2, “Methods and compositions for treating infection” (UNIVERSITY OF ROCHESTER, priority 2012, dated 2018)
